Marks after values point to notes of the source that are not given here.
Assays:
[1] = rabbit, in vivo
[2] = rabbit, in vivo; remark: listed apart in the source

In the case of “Monosulphate Heptadodecyl Sucrose [S12, reference compound]”, the “Body temperature one day after the first immunization, Mean” value [1] is reported as 39.4^a ° C, the “Body temperature one day after the second immunization, Mean” value [1] is reported as 39.7^a ° C and the “rise in body temperature one day after the first and second immunization” value [1] is reported as “about 0.5 °C”. The “Number of animals demonstrating a detectable adverse local reaction four weeks after the first immunization” value [2] was 1/6 (redness) and the “Number of animals demonstrating a detectable adverse local reaction one week after the second immunization” value [2] was 2/6 (redness/swelling).

From patent US10342867B2 (priority 2014, dated 2019)
